Toxic doses and inconclusive results are not listed. How the source made its calls: active means survival T/C of 150% or more; inactive means T/C below 125% in these data.
Tested on: CD2F1 mice, L1210 leukemia ip, survival T/C
Test: NCI In Vivo Anticancer Drug Screen. Data for tumor model L1210 Leukemia (intraperitoneal) in CD2F1 (CDF1) mice
Details: higher = longer survival
Experimental: The antitumor activity of compounds was measured in mice bearing transplantable tumors. Survival or tumor size were measured and the results are expressed as the measurement made in the treated group (T) divided by the measurement made in the vehicle treated control group (C). The tumor model used in this assay is L1210 Leukemia (intraperitoneal) in CD2F1 (CDF1) mice

[1] = endpoint: mean survival time, dose: 100.0 mg/kg/injection, schedule: Q04DX003 (ip), vehicle: saline with Tween-80
[2] = endpoint: mean survival time, dose: 200.0 mg/kg/injection, schedule: Q04DX003 (ip), vehicle: saline with Tween-80
[3] = endpoint: mean survival time, dose: 400.0 mg/kg/injection, schedule: Q04DX003 (ip), vehicle: saline with Tween-80

Measured: T/C

Cc1ccc(S(=O)(=O)NC(=S)c2ccccc2)cc1
inactive: endpoint: mean survival time, dose: 100.0 mg/kg/injection, schedule: Q01DX001 (ip), vehicle: saline with Tween-80 97 % of control | endpoint: mean survival time, dose: 200.0 mg/kg/injection, schedule: Q01DX001 (ip), vehicle: saline with Tween-80 105 % of control

Cc1cc2c(c3oc(C4(C)OC4C4OC4C)cc(=O)c13)C(=O)c1c(O)c(C3CC(C)(N(C)C)C(O)C(C)O3)cc(C3CC(N(C)C)C(O)C(C)O3)c1C2=O (stereo not drawn)
inactive: endpoint: mean survival time, dose: 0.07 mg/kg/injection, schedule: Q01DX009 (oral), vehicle: saline 87 % of control | endpoint: mean survival time, dose: 0.13 mg/kg/injection, schedule: Q01DX009 (oral), vehicle: saline 93 % of control | endpoint: mean survival time, dose: 0.25 mg/kg/injection, schedule: Q01DX001 (oral), vehicle: saline 98 % of control | endpoint: mean survival time, dose: 0.25 mg/kg/injection, schedule: Q01DX009 (oral), vehicle: saline 92 % of control | endpoint: mean survival time, dose: 0.5 mg/kg/injection, schedule: Q01DX001 (oral), vehicle: saline 97 % of control | endpoint: mean survival time, dose: 0.5 mg/kg/injection, schedule: Q01DX009 (oral), vehicle: saline 100 % of control | endpoint: mean survival time, dose: 1.0 mg/kg/injection, schedule: Q01DX001 (oral), vehicle: saline 96 % of control | endpoint: mean survival time, dose: 2.0 mg/kg/injection, schedule: Q01DX001 (oral), vehicle: saline 97 % of control | endpoint: mean survival time, dose: 1.0 micrograms/kg/injection, schedule: Q03HX024 (ip), vehicle: saline 106 % of control | endpoint: mean survival time, dose: 1.3 micrograms/kg/injection, schedule: Q01DX009 (ip), vehicle: water 101 % of control | endpoint: mean survival time, dose: 2.0 micrograms/kg/injection, schedule: Q03HX024 (ip), vehicle: saline 111 % of control | endpoint: mean survival time, dose: 2.5 micrograms/kg/injection, schedule: Q01DX009 (ip), vehicle: water 112 % of control | endpoint: mean survival time, dose: 4.0 micrograms/kg/injection, schedule: Q01DX009 (ip), vehicle: saline 102 % of control | endpoint: mean survival time, dose: 4.0 micrograms/kg/injection, schedule: Q03HX024 (ip), vehicle: saline 111 % of control | endpoint: mean survival time, dose: 5.0 micrograms/kg/injection, schedule: Q01DX009 (ip), vehicle: water 108 % of control | endpoint: mean survival time, dose: 8.0 micrograms/kg/injection, schedule: Q01DX009 (ip), vehicle: saline 109 % of control | endpoint: mean survival time, dose: 8.0 micrograms/kg/injection, schedule: Q03HX008 (ip), vehicle: saline 103 % of control | endpoint: mean survival time, dose: 8.0 micrograms/kg/injection, schedule: Q03HX024 (ip), vehicle: saline 112 % of control | endpoint: mean survival time, dose: 10.0 micrograms/kg/injection, schedule: Q01DX009 (ip), vehicle: water 112 % of control | endpoint: mean survival time, dose: 15.0 micrograms/kg/injection, schedule: Q01DX009 (ip), vehicle: saline 109 % of control | endpoint: mean survival time, dose: 15.0 micrograms/kg/injection, schedule: Q03HX008 (ip), vehicle: saline 112 % of control | endpoint: mean survival time, dose: 15.0 micrograms/kg/injection, schedule: Q08DX002 (ip), vehicle: saline 98 % of control | endpoint: mean survival time, dose: 20.0 micrograms/kg/injection, schedule: Q01DX009 (ip), vehicle: water 106 % of control | endpoint: mean survival time, dose: 30.0 micrograms/kg/injection, schedule: Q01DX009 (ip), vehicle: saline 114 % of control | endpoint: mean survival time, dose: 30.0 micrograms/kg/injection, schedule: Q03HX008 (ip), vehicle: saline 113 % of control | endpoint: mean survival time, dose: 30.0 micrograms/kg/injection, schedule: Q08DX002 (ip), vehicle: saline 98 % of control | endpoint: mean survival time, dose: 40.0 micrograms/kg/injection, schedule: Q01DX009 (ip), vehicle: water 91 % of control | endpoint: mean survival time, dose: 60.0 micrograms/kg/injection, schedule: Q03HX008 (ip), vehicle: saline 118 % of control | endpoint: mean survival time, dose: 60.0 micrograms/kg/injection, schedule: Q08DX002 (ip), vehicle: saline 106 % of control | endpoint: mean survival time, dose: 120.0 micrograms/kg/injection, schedule: Q08DX002 (ip), vehicle: saline 121 % of control

CCCCCCCCCC(=O)NCC[N+](C)(CC)CC
inactive: endpoint: mean survival time, dose: 5.0 mg/kg/injection, schedule: Q01DX001 (ip), vehicle: saline 102 % of control | endpoint: mean survival time, dose: 10.0 mg/kg/injection, schedule: Q01DX001 (ip), vehicle: saline 107 % of control | endpoint: mean survival time, dose: 20.0 mg/kg/injection, schedule: Q01DX001 (ip), vehicle: saline 100 % of control | endpoint: mean survival time, dose: 40.0 mg/kg/injection, schedule: Q01DX001 (ip), vehicle: saline 105 % of control

CC1(C)CN(c2ccccc2)NC1=O
inactive: endpoint: mean survival time, dose: 1.25 mg/kg/injection, schedule: Q01DX009 (ip), vehicle: Klucel (hydroxypropylcellulose) (HPC) 101 % of control | endpoint: mean survival time, dose: 2.5 mg/kg/injection, schedule: Q01DX009 (ip), vehicle: Klucel (hydroxypropylcellulose) (HPC) 98 % of control | endpoint: mean survival time, dose: 5.0 mg/kg/injection, schedule: Q01DX009 (ip), vehicle: Klucel (hydroxypropylcellulose) (HPC) 101 % of control

C[C@]12C=CC(=O)C=C1CC[C@@H]1[C@@H]2CC[C@]2(C)OC(=O)CC[C@@H]12
inactive: endpoint: median survival time, dose: 125.0 mg/kg/injection, schedule: Q01DX009 (sc), vehicle: steriod suspending solution 97 % of control | endpoint: median survival time, dose: 125.0 mg/kg/injection, schedule: Q## X009 (sc), vehicle: steriod suspending solution 97 % of control | endpoint: median survival time, dose: 250.0 mg/kg/injection, schedule: Q01DX009 (sc), vehicle: steriod suspending solution 104 % of control | endpoint: median survival time, dose: 250.0 mg/kg/injection, schedule: Q## X009 (sc), vehicle: steriod suspending solution 104 % of control | endpoint: median survival time, dose: 500.0 mg/kg/injection, schedule: Q01DX009 (sc), vehicle: steriod suspending solution 102 % of control | endpoint: median survival time, dose: 500.0 mg/kg/injection, schedule: Q## X009 (sc), vehicle: steriod suspending solution 102 % of control | endpoint: median survival time, dose: 1000.0 mg/kg/injection, schedule: Q01DX009 (sc), vehicle: steriod suspending solution 102 % of control | endpoint: median survival time, dose: 1000.0 mg/kg/injection, schedule: Q## X009 (sc), vehicle: steriod suspending solution 102 % of control

CC(=O)OCC1OC(n2cnc3[nH]c(=S)[nH]c(=S)c32)C(OC(C)=O)C1OC(C)=O (stereo not drawn)
inactive: endpoint: mean survival time, dose: 100.0 mg/kg/injection, schedule: Q01DX001 (ip), vehicle: saline 103 % of control | endpoint: mean survival time, dose: 200.0 mg/kg/injection, schedule: Q01DX001 (ip), vehicle: saline 96 % of control | endpoint: mean survival time, dose: 400.0 mg/kg/injection, schedule: Q01DX001 (ip), vehicle: saline 97 % of control

CCOC(=O)c1c(C)cc(O)cc1O
inactive: [1] 95 % of control | [2] 95 % of control | [3] 95 % of control

O=C(Nc1ccc(Cl)c(Cl)c1)C(Cl)(Cl)Cl
inactive: endpoint: mean survival time, dose: 100.0 mg/kg/injection, schedule: Q01DX009 (ip), vehicle: saline + alcohol 91 % of control | endpoint: mean survival time, dose: 200.0 mg/kg/injection, schedule: Q01DX009 (ip), vehicle: saline + alcohol 89 % of control | endpoint: mean survival time, dose: 400.0 mg/kg/injection, schedule: Q01DX009 (ip), vehicle: saline + alcohol 91 % of control

Cc1c2ccncc2cc2c1[nH]c1ccccc12
inactive: endpoint: mean survival time, dose: 0.8 mg/kg/injection, schedule: Q03HX008 (iv), vehicle: saline 97 % of control | endpoint: mean survival time, dose: 1.6 mg/kg/injection, schedule: Q03HX008 (iv), vehicle: saline 97 % of control | endpoint: mean survival time, dose: 1.6 mg/kg/injection, schedule: Q06HX004 (iv), vehicle: saline 97 % of control | endpoint: mean survival time, dose: 3.2 mg/kg/injection, schedule: Q06HX004 (iv), vehicle: saline 93 % of control | endpoint: mean survival time, dose: 3.21 mg/kg/injection, schedule: Q#A X002 (iv), vehicle: saline 95 % of control | endpoint: mean survival time, dose: 6.3 mg/kg/injection, schedule: Q06HX004 (iv), vehicle: saline 97 % of control | endpoint: mean survival time, dose: 6.31 mg/kg/injection, schedule: Q#A X002 (iv), vehicle: saline 101 % of control | endpoint: mean survival time, dose: 12.5 mg/kg/injection, schedule: Q01DX001 (iv), vehicle: saline 95 % of control | endpoint: mean survival time, dose: 12.51 mg/kg/injection, schedule: Q#A X002 (iv), vehicle: saline 100 % of control | endpoint: mean survival time, dose: 25.0 mg/kg/injection, schedule: Q01DX001 (iv), vehicle: saline 98 % of control | endpoint: mean survival time, dose: 25.1 mg/kg/injection, schedule: Q#A X002 (iv), vehicle: saline 101 % of control

Nc1nc2c(ncn2-c2ccc(OCCNC(=O)Nc3cc(S(=O)(=O)F)ccc3Cl)cc2)c(=O)[nH]1 (tested in a mixture with another compound)
inactive: endpoint: mean survival time, dose: 75.0 mg/kg/injection, schedule: Q01DX001 (ip), vehicle: saline with Tween-80 92 % of control | endpoint: mean survival time, dose: 150.0 mg/kg/injection, schedule: Q01DX001 (ip), vehicle: saline with Tween-80 95 % of control

Cc1csc2ncn(C3OC(CO)C(O)C3O)c(=O)c12 (stereo not drawn)
inactive: endpoint: mean survival time, dose: 12.5 mg/kg/injection, schedule: Q01DX009 (ip), vehicle: saline with Tween-80 110 % of control | endpoint: mean survival time, dose: 25.0 mg/kg/injection, schedule: Q01DX009 (ip), vehicle: saline with Tween-80 101 % of control | endpoint: mean survival time, dose: 50.0 mg/kg/injection, schedule: Q01DX009 (ip), vehicle: saline with Tween-80 94 % of control

CCOc1ccc(NC(=O)C(C)O)cc1 (stereo not drawn)
inactive: endpoint: mean survival time, dose: 100.0 mg/kg/injection, schedule: Q01DX009 (ip), vehicle: saline with Tween-80 95 % of control | [1] 103 % of control | endpoint: mean survival time, dose: 200.0 mg/kg/injection, schedule: Q01DX009 (ip), vehicle: saline with Tween-80 101 % of control | [2] 97 % of control | endpoint: mean survival time, dose: 400.0 mg/kg/injection, schedule: Q01DX009 (ip), vehicle: saline with Tween-80 107 % of control | [3] 97 % of control
